{"source": "patent US20180289678A1", "about": "“PHARMACEUTICAL COMPOSITION, PHARMACEUTICAL DOSAGE FORM, PROCESS FOR THEIR PREPARATION, METHODS FOR TREATING AND USES THEREOF” (Boehringer Ingelheim International GmbH, priority 2009, published 2018)", "experiment": "Study .2: multiple rising dose trial in diabetic patients, once daily for 8 days, pharmacokinetic parameters", "format": "in vivo, human", "settings": "Study .2, fasted", "description": "5. Pharmacokinetic Parameters\nThe pharmacokinetic parameters of pharmaceutical compositions and pharmaceutical dosage forms are assessed in healthy volunteer and patient populations. In the studies shown below, the participants fasted on the day of sampling, unless as otherwise stated (see for example study .3). The active substance in the studies below is the compound (I.9), preferably in the crystalline form (I.9X), and the dose of active ingredient is indicated in mg.\nFor the quantification of plasma concentrations of the active ingredient, 2.7 mL of blood was collected and transferred into an EDTA (ethylendiaminetetraacetic acid)-anticoagulant blood drawing tube. The EDTA-anticoagulated blood samples were centrifuged immediately after collection. Centrifugation lasted for about 10 minutes (at about 2,000×gf to 4,000×gf) at 4-8° C. or within 30 minutes while stored on ice. Concentrations of active substance in EDTA human plasma samples were quantitated using a HPLC/MS/MS method. The assay method comprised a solid phase supported liquid-liquid extraction of human plasma coupled with HPLC/MS/MS determination of the extracted samples. The HPLC/MS/MS assay was validated for the range of 1.11 to 1110 nM in human plasma.\nStudy .2: Multiple rising dose trial in a diabetic patient population of N=48, once daily administration for 8 days. Patients were administered tablets as described in Example 10 (section Examples of formulations).\nAUC0-inf:area under the concentration-time curve of the analyte in plasma over the time interval from 0 extrapolated to infinity.\nCmax: maximum concentration of the analyte in plasma.\nTmax: time from dosing to maximum concentration.\nAUCT,SS:area under the concentration-time curve of the analyte in plasma over the time interval from 0 to 24 h at steady-state.\nCmax,ss:maximum concentration of the analyte in plasma at steady state over a uniform dosing interval.\ntmax,ss:time from dosing to maximum concentration at steady state.", "key": {"[1]": {"settings": "2.5 mg once daily, steady state"}}, "note": "Where two headings read alike, the source gives them in different places."}
{"smiles": "OC[C@H]1O[C@@H](c2ccc(Cl)c(Cc3ccc(O[C@H]4CCOC4)cc3)c2)[C@H](O)[C@@H](O)[C@@H]1O", "note": "[Compound (I.9), 1-chloro-4-(β-D-glucopyranos-1-yl)-2-[4-((S)-tetrahydrofuran-3-yloxy)-benzyl]-benzene]", "values": [{"measurement": "AUCτ,ss Max", "setting": "[1]", "result": 0.677, "unit": "µM·h"}, {"measurement": "AUCτ,ss Mean", "setting": "[1]", "result": 0.471, "unit": "µM·h"}, {"measurement": "AUCτ,ss Min", "setting": "[1]", "result": 0.283, "unit": "µM·h"}, {"measurement": "tmax,ss Median", "setting": "[1]", "result": 90, "unit": "min"}, {"measurement": "tmax,ss Min", "setting": "[1]", "result": 59, "unit": "min"}, {"measurement": "Cmax", "setting": "2.5 mg once daily, steady state, read-out: Cmax,ss Max", "result": 96.3, "unit": "nM"}, {"measurement": "Cmax", "setting": "2.5 mg once daily, steady state, read-out: Cmax,ss Mean", "result": 68.5, "unit": "nM"}, {"measurement": "Cmax", "setting": "2.5 mg once daily, steady state, read-out: Cmax,ss Min", "result": 40.3, "unit": "nM"}, {"measurement": "AUC0-inf Max", "setting": "2.5 mg single dose", "result": 0.631, "unit": "µM·h"}, {"measurement": "AUC0-inf Min", "setting": "2.5 mg single dose", "result": 0.326, "unit": "µM·h"}, {"measurement": "AUC0-inf,norm Max", "setting": "2.5 mg single dose", "result": 252, "unit": "nmol·h/L/mg"}, {"measurement": "AUC0-inf,norm Median", "setting": "2.5 mg single dose", "result": 200, "unit": "nmol·h/L/mg"}, {"measurement": "AUC0-inf,norm Min", "setting": "2.5 mg single dose", "result": 130, "unit": "nmol·h/L/mg"}, {"measurement": "AUC0-inf,norm gMean", "setting": "2.5 mg single dose", "result": 187, "unit": "nmol·h/L/mg"}, {"measurement": "Cmax,norm Max", "setting": "2.5 mg single dose", "result": 32, "unit": "nmol/L/mg"}, {"measurement": "Cmax,norm Median", "setting": "2.5 mg single dose", "result": 25, "unit": "nmol/L/mg"}, {"measurement": "Cmax,norm Min", "setting": "2.5 mg single dose", "result": 17, "unit": "nmol/L/mg"}, {"measurement": "Cmax,norm gMean", "setting": "2.5 mg single dose", "result": 25, "unit": "nmol/L/mg"}, {"measurement": "tmax Max", "setting": "2.5 mg single dose", "result": 90, "unit": "min"}, {"measurement": "tmax Min", "setting": "2.5 mg single dose", "result": 40, "unit": "min"}, {"measurement": "Cmax", "setting": "2.5 mg single dose, read-out: Cmax Max", "result": 81.2, "unit": "nM"}, {"measurement": "Cmax", "setting": "2.5 mg single dose, read-out: Cmax Mean", "result": 62.4, "unit": "nM"}, {"measurement": "Cmax", "setting": "2.5 mg single dose, read-out: Cmax Min", "result": 43.3, "unit": "nM"}, {"measurement": "AUCτ,ss Max", "setting": "10 mg once daily, steady state", "result": 2.58, "unit": "µM·h"}, {"measurement": "AUCτ,ss Mean", "setting": "10 mg once daily, steady state", "result": 2.03, "unit": "µM·h"}, {"measurement": "AUCτ,ss Min", "setting": "10 mg once daily, steady state", "result": 1.64, "unit": "µM·h"}, {"measurement": "tmax,ss Min", "setting": "10 mg once daily, steady state", "result": 59, "unit": "min"}, {"measurement": "Cmax", "setting": "10 mg once daily, steady state, read-out: Cmax,ss Max", "result": 479, "unit": "nM"}, {"measurement": "Cmax", "setting": "10 mg once daily, steady state, read-out: Cmax,ss Mean", "result": 283, "unit": "nM"}, {"measurement": "Cmax", "setting": "10 mg once daily, steady state, read-out: Cmax,ss Min", "result": 172, "unit": "nM"}, {"measurement": "AUC0-inf Max", "setting": "10 mg single dose", "result": 2.4, "unit": "µM·h"}, {"measurement": "AUC0-inf Min", "setting": "10 mg single dose", "result": 1.6, "unit": "µM·h"}, {"measurement": "AUC0-inf,norm Max", "setting": "10 mg single dose", "result": 240, "unit": "nmol·h/L/mg"}, {"measurement": "AUC0-inf,norm Median", "setting": "10 mg single dose", "result": 183, "unit": "nmol·h/L/mg"}, {"measurement": "AUC0-inf,norm Min", "setting": "10 mg single dose", "result": 160, "unit": "nmol·h/L/mg"}, {"measurement": "AUC0-inf,norm gMean", "setting": "10 mg single dose", "result": 189, "unit": "nmol·h/L/mg"}, {"measurement": "Cmax,norm Max", "setting": "10 mg single dose", "result": 34, "unit": "nmol/L/mg"}, {"measurement": "Cmax,norm Median", "setting": "10 mg single dose", "result": 23, "unit": "nmol/L/mg"}, {"measurement": "Cmax,norm Min", "setting": "10 mg single dose", "result": 16, "unit": "nmol/L/mg"}, {"measurement": "Cmax,norm gMean", "setting": "10 mg single dose", "result": 24, "unit": "nmol/L/mg"}, {"measurement": "tmax Median", "setting": "10 mg single dose", "result": 90, "unit": "min"}, {"measurement": "tmax Min", "setting": "10 mg single dose", "result": 59, "unit": "min"}, {"measurement": "Cmax", "setting": "10 mg single dose, read-out: Cmax Max", "result": 344, "unit": "nM"}, {"measurement": "Cmax", "setting": "10 mg single dose, read-out: Cmax Mean", "result": 245, "unit": "nM"}, {"measurement": "Cmax", "setting": "10 mg single dose, read-out: Cmax Min", "result": 163, "unit": "nM"}, {"measurement": "AUCτ,ss Max", "setting": "25 mg once daily, steady state", "result": 6.65, "unit": "µM·h"}, {"measurement": "AUCτ,ss Mean", "setting": "25 mg once daily, steady state", "result": 4.99, "unit": "µM·h"}, {"measurement": "AUCτ,ss Min", "setting": "25 mg once daily, steady state", "result": 3.44, "unit": "µM·h"}, {"measurement": "tmax,ss Max", "setting": "25 mg once daily, steady state", "result": 252, "unit": "min"}, {"measurement": "tmax,ss Min", "setting": "25 mg once daily, steady state", "result": 40, "unit": "min"}, {"measurement": "Cmax", "setting": "25 mg once daily, steady state, read-out: Cmax,ss Max", "result": 793, "unit": "nM"}, {"measurement": "Cmax", "setting": "25 mg once daily, steady state, read-out: Cmax,ss Mean", "result": 630, "unit": "nM"}, {"measurement": "Cmax", "setting": "25 mg once daily, steady state, read-out: Cmax,ss Min", "result": 443, "unit": "nM"}, {"measurement": "AUC0-inf Max", "setting": "25 mg single dose", "result": 6.92, "unit": "µM·h"}, {"measurement": "AUC0-inf Min", "setting": "25 mg single dose", "result": 3.69, "unit": "µM·h"}, {"measurement": "AUC0-inf,norm Max", "setting": "25 mg single dose", "result": 277, "unit": "nmol·h/L/mg"}, {"measurement": "AUC0-inf,norm Median", "setting": "25 mg single dose", "result": 186, "unit": "nmol·h/L/mg"}, {"measurement": "AUC0-inf,norm Min", "setting": "25 mg single dose", "result": 148, "unit": "nmol·h/L/mg"}, {"measurement": "AUC0-inf,norm gMean", "setting": "25 mg single dose", "result": 191, "unit": "nmol·h/L/mg"}, {"measurement": "Cmax,norm Max", "setting": "25 mg single dose", "result": 36, "unit": "nmol/L/mg"}, {"measurement": "Cmax,norm Median", "setting": "25 mg single dose", "result": 23, "unit": "nmol/L/mg"}, {"measurement": "Cmax,norm Min", "setting": "25 mg single dose", "result": 17, "unit": "nmol/L/mg"}, {"measurement": "Cmax,norm gMean", "setting": "25 mg single dose", "result": 24, "unit": "nmol/L/mg"}, {"measurement": "tmax Max", "setting": "25 mg single dose", "result": 240, "unit": "min"}, {"measurement": "tmax Min", "setting": "25 mg single dose", "result": 59, "unit": "min"}, {"measurement": "Cmax", "setting": "25 mg single dose, read-out: Cmax Max", "result": 905, "unit": "nM"}, {"measurement": "Cmax", "setting": "25 mg single dose, read-out: Cmax Mean", "result": 606, "unit": "nM"}]}
